Here are results for one molecule from patent US20230372374A1, “VETERINARY PHARMACEUTICAL FORMULATIONS” (INCREVET, INC., priority 2022, published 2023).

The solubility is the concentration that dissolves in the medium under given conditions. In general, Tmax refers to the time at which the peak concentration occurs. Usually half-life stands for how long it takes for the measured level to halve. Lower therefore signals rapid decline.

A short description of series [1]: Solubility of bexagliflozin in aqueous media. The series is classed as physicochemical. The conditions noted are these: aqueous media at 37° C.
Series [2] relates to renal glucose reuptake. The series can be described thus: Urinary glucose excretion in cats after tablet dosing. The conditions noted are these: healthy cats, tablets, corrected for assay. Type of series: in vivo, cat. The procedure:
A dose range-finding study was conducted with tablets prepared using a polacrilex resin slurry process. For the evaluation of pharmacodynamics, animals were fed canned food, to promote a constant daily urine volume and proper collection of urine samples. Water was supplied ad libitum.
All animals were administered test article at each dose level. The 2.5 mg dose was delivered as half of one 5 mg tablet cleaved with a pill cutter. The 5 mg dose was delivered as one 5 mg tablet per cat, the 10 mg dose was delivered as one 10 mg tablet per cat and the 30 mg dose was delivered as two 15 mg tablets per cat. For the pharmacokinetics study, test articles were dosed after the sampling of blood at pre-dose (0 h) time point. For the pharmacodynamics study, test articles were administered daily at 9:00-9:30 for four consecutive days and urine excreted by the animals for the last three days (after the dose and before next dose) was collected.
Collections were performed for three days to diminish the consequences of day-to-day variation of urine excretion. […] For convenience in referring to dose levels, the nominal dosages are used in this report, but calculations of dose-response relationships in mg kg^−1 were based on the measured bexagliflozin content.
The pharmacodynamics elicited by bexagliflozin delivered by tablets was also evaluated. […]

The nature of series [3]: Pharmacokinetics in cats after capsule dosing. Type of series: in vivo, cat. On the procedure:
Capsules were evaluated using cohorts of four laboratory cats that were administered test article at multiple dose levels. The test article was prepared in size 4 gelatin capsules and administered by mouth to animals that had been fasted 12 h. The capsules were loaded with 5% bexagliflozin (w/w) in microcrystalline cellulose for the 0.1, 0.3 and 1.0 mg kg^−1 dose levels, and with bexagliflozin alone for the 3.0 and 10.0 mg kg^−1 dose levels. The cats were provided with food ad libitum 2 hours after dosing.
Blood samples were collected from the acral vein at the scheduled time points. Samples of 0.1 to 0.3 mL were drawn into 1.5 mL tubes containing dipotassium EDTA as an anticoagulant. The samples were immediately mixed by gently inverting the tube approximately 8 times. Immediately following mixing, the tubes were placed on crushed ice and kept chilled until centrifugation. Samples were centrifuged within 1 hour of collection. Following centrifugation, the tubes were returned to crushed ice and supernatants transferred into microcentrifuge tubes and frozen. The tubes were stored frozen in a −20° C. freezer at the testing facility prior to shipment for analysis. Plasma bexagliflozin concentration was measured by an LC-MS/MS method. Separations were performed using an Agilent 1200 equipped with a Thermo Betasil C18 50×2.1 mm, 5 μm packing column or a Phenomenex Gemini C18 50×4.5 mm, 5 μm packing column. Analyte detection was performed with an ABI 4000 or AB Sciex QTRAP 5500 mass spectrometer.
The volume of distribution was relatively large, ranging from 5.5 to 11.9 L kg^−1, with no dose-dependent trend. […] The majority of the variation in half-life was attributable to variation in the volume of distribution, and the clearance was relatively constant at 1.46±0.24 L h^−1 kg^−1. The AUC0-24 was proportional to dose over the entire dosing range and a linear regression with a constrained intercept of 0 ng h mL^−1 at 0 mg kg^−1 gave a slope of 762 ng h mL^−1 per mg kg^−1 of dose (FIG. 2).

The conditions of series [4]: humans; cited from earlier work.
In series [5] the test system is renal glucose reuptake. The series can be described thus: Urinary glucose excretion in cats after capsule dosing. The series is classed as in vivo, cat. The procedure: The pharmacodynamics of inhibitors of renal glucose reuptake can be easily monitored by measurement of urinary glucose excretion (UGE). The sodium-linked glucose transporters SGLT1 and SGLT2 are expressed in the second and first segments, respectively, (pars recta and pars convoluta) of the renal proximal tubule.
As described above, 4 laboratory cats were administered bexagliflozin as either a blend with microcrystalline cellulose or as pure bexagliflozin, in each case in gelatin capsules. Bexagliflozin induced a significant glucosuria in healthy cats. At 3 mg kg^−1, total urinary glucose excreted over a period of 24 hours was 4.78 g (Table 14). […] Glucosuria following test article administration in the fasted state was higher than glucosuria following administration in the fed state (Table 14, bottom row).

For series [6], the system named is renal glucose reuptake. The series can be described thus: Urinary glucose excretion in cats after DEGEE/glycerol liquid formulations. The conditions noted are these: daily oral DEGEE/glycerol liquid formulations F16D-V1 to F16D. The series is classed as in vivo, cat. The procedure:
The pharmacodynamics produced by liquid formulations of bexagliflozin were also evaluated. Cats were fed daily with Whiskas Cat Food in Can (Ocean Fish) and bexagliflozin was delivered orally daily with different formulations derived from F16D as shown in Table 15.
Cats were dosed with F16D-V0 (0.1 mL kg^−1) for two days (vehicle control), and urine samples were collected on the second day for glucose excretion analysis. Similarly, cats were dosed daily with F16D-V1 (0.1 mL kg^−1) from Day 1 to Day 4 at 0.1 mg kg^−1 dose, and urine samples were collected from Day 2 to Day 4 for glucose excretion analysis; cats were dosed daily with F16D-V2 (0.1 mL kg^−1) from Day 5 to Day 8 at 0.3 mg kg^−1 dose, and urine samples were collected from Day 6 to Day 8 for glucose excretion analysis; cats were dosed daily with F16D-V3 (0.1 mL kg^−1) from Day 9 to Day 12 at 1 mg kg^−1 dose, and urine samples collected from Day 10 to Day 12 for glucose excretion analysis; and cats were dosed daily with F16D (0.1 mL kg^−1) from Day 13 to Day 16 at 3 mg kg^−1 dose, and urine samples were collected from Day 14 to Day 16 for glucose excretion analysis.
Urine samples were analyzed using a HITACHI 7600-010 automatic biochemistry analyzer. Urine glucose and creatinine concentrations were measured. […]

SMILES strings stand for the structures. Values after ≈ are worked out from the molar mass of the structure shown.

For `OC[C@H]1O[C@@H](c2ccc(Cl)c(Cc3ccc(OCCOC4CC4)cc3)c2)[C@H](O)[C@@H](O)[C@@H]1O` [Bexagliflozin, (2S,3R,4R,5S,6R)-2-(4-chloro-3-(4-(2-cyclopropoxyethoxy)benzyl)phenyl)-6-(hydroxymethyl)tetrahydro-2H-pyran-3,4,5-triol], the solubility in series [1] is approximately 0.5 mg/mL (≈ 1080 µM). For the same molecule, in the series on renal glucose reuptake [2], the “ED50 for UGE” value was 0.505 mg/kg. Moreover, the “slope of AUC0-24 versus dose” value in series [3] (cats, capsules, linear regression with constrained intercept of 0) was 762 ng h mL^−1 per mg kg^−1. In series [3] (in vivo, po), the Tmax lay within 0.6 to 1.2 h, the clearance amounted to 1.46 ± 0.24 L/h/kg, the half-life fell in the range of 2.9 to 5.9 h and the volume of distribution is 5.5 to 11.9 L/kg. In addition, the “hazard ratio for the reduction in major adverse cardiovascular events” value in series [4] was 0.774. Further, in the series with renal glucose reuptake [5] (cats, capsule, 3 mg kg^−1), the “total urinary glucose excreted over a period of 24 hours” value is reported as 4.78 g. The molecule also gave an ED50 of glucosuria in the series with renal glucose reuptake [5] (healthy cats, capsules) of 0.56 mg/kg. Further, the “half-maximal dose (ED50) for daily glucose excretion” value in the series with renal glucose reuptake [6] came out at 0.383 mg/kg/day. The “maximum daily glucose excretion (predicted)” value in the series on renal glucose reuptake [6] (0.1 to 3 mg kg^−1) was 7854 mg.
